Targets include ABL1 (Homo sapiens, UniProt P00519); CK2a2 (Homo sapiens, UniProt P19784); PAK4 (Homo sapiens, UniProt O96013); CDKL1 (Homo sapiens, UniProt Q00532); EpHA4 (Homo sapiens, UniProt P54764).
Assay in all cases: biochemical
In a further assay the target is T1, DYRK2 (Homo sapiens, UniProt Q92630).
T1 sequence (Q92630 1-601): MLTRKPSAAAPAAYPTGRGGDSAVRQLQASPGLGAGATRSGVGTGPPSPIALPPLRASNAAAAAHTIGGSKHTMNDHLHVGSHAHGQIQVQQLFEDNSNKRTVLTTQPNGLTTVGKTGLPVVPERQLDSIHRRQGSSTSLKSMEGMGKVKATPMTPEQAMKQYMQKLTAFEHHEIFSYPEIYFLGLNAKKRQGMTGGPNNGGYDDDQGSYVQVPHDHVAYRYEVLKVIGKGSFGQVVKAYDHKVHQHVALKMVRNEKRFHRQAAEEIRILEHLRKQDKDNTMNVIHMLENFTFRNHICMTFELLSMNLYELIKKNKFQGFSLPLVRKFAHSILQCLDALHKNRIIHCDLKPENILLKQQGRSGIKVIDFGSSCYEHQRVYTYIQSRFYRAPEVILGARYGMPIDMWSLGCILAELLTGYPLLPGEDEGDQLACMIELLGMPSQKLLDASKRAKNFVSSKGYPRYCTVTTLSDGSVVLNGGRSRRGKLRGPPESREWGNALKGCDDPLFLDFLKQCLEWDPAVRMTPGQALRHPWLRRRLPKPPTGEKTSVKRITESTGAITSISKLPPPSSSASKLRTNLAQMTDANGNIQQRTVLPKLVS

A further assay concerns the target T2, BRPF1 (Homo sapiens, UniProt P55201).
T2 sequence (P55201 1-1214): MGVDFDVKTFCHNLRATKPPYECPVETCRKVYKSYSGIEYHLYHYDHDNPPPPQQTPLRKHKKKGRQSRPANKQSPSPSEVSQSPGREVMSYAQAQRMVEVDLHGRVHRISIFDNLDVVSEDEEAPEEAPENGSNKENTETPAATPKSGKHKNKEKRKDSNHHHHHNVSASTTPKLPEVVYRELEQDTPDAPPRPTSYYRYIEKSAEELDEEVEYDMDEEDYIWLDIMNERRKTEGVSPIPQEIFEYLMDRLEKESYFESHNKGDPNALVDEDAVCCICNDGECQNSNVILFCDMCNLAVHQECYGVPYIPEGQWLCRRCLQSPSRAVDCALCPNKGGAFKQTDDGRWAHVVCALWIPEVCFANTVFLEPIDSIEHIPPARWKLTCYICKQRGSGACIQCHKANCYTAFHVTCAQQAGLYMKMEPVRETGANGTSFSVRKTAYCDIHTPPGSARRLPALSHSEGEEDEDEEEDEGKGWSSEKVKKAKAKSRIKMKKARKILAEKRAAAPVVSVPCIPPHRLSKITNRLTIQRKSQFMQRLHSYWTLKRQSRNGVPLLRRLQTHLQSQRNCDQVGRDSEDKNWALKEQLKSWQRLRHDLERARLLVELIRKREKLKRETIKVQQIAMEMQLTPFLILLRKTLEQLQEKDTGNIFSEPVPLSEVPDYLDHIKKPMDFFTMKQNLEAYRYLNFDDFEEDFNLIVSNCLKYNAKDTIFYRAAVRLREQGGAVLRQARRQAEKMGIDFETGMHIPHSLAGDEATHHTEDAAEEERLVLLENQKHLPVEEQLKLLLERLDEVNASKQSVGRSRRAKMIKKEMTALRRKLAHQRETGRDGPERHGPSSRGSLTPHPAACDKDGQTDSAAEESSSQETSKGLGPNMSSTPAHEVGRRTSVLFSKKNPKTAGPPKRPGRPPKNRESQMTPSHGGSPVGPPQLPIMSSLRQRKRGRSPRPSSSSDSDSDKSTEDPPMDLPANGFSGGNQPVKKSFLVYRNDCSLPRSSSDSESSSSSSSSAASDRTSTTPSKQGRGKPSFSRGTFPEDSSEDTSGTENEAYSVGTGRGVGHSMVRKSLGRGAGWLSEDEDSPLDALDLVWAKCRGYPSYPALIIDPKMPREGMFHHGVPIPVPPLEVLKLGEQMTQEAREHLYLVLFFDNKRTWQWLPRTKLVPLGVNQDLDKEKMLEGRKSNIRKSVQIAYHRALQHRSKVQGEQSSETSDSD

The next assay deals with T3, VRK1 (Homo sapiens, UniProt Q99986).
T3 sequence (Q99986 1-396): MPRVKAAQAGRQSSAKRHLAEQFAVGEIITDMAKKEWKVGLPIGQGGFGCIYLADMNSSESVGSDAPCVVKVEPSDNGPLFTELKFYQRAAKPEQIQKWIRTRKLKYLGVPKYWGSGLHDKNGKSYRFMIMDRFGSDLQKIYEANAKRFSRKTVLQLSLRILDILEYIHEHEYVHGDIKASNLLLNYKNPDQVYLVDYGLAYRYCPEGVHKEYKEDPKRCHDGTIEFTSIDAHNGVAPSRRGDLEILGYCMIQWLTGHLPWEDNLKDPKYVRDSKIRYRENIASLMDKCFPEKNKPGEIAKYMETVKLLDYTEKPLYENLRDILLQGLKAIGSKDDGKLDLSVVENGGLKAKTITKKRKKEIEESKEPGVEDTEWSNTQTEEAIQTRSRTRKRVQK

Read-outs that look alike come from different tables or passages of the source.

CK2a2, sequence (P19784 whole entry): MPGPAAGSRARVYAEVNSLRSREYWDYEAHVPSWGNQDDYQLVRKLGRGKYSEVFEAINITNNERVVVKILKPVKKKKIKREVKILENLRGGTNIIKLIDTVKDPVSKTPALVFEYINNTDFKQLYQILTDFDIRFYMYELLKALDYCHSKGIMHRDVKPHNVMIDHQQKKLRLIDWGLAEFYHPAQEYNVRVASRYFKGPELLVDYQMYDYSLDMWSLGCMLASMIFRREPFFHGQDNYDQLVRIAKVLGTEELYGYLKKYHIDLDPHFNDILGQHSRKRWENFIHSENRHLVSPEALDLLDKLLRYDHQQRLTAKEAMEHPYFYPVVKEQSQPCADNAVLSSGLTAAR
ABL1, sequence (P00519 whole entry): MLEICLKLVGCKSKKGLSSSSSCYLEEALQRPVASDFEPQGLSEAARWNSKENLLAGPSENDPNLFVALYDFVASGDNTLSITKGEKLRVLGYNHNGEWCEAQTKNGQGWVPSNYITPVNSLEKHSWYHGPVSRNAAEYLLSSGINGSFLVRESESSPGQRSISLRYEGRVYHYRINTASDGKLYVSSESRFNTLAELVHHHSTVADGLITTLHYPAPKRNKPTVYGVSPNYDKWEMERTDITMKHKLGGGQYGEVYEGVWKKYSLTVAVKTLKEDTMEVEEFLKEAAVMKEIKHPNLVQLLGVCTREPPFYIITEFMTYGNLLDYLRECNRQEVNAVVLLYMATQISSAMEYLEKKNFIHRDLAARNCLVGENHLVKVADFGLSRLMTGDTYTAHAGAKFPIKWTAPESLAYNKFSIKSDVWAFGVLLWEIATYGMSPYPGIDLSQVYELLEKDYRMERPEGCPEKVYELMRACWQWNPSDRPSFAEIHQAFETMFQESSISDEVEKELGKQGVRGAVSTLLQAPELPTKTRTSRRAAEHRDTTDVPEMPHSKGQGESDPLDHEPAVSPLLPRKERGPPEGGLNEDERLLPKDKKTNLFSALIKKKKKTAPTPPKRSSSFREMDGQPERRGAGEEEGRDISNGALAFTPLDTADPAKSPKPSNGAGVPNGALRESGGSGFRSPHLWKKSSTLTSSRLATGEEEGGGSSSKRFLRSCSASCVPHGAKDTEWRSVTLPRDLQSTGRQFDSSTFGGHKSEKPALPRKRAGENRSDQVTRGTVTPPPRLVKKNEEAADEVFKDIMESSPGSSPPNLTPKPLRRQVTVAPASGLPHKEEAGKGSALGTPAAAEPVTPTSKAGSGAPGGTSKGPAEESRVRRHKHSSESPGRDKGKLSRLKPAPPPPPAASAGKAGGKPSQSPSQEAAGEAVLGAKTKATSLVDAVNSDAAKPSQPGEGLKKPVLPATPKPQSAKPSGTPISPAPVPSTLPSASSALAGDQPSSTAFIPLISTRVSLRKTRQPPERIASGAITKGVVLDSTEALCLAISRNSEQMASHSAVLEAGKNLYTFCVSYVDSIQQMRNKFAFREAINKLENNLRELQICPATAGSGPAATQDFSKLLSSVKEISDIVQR
EpHA4, sequence (P54764 whole entry): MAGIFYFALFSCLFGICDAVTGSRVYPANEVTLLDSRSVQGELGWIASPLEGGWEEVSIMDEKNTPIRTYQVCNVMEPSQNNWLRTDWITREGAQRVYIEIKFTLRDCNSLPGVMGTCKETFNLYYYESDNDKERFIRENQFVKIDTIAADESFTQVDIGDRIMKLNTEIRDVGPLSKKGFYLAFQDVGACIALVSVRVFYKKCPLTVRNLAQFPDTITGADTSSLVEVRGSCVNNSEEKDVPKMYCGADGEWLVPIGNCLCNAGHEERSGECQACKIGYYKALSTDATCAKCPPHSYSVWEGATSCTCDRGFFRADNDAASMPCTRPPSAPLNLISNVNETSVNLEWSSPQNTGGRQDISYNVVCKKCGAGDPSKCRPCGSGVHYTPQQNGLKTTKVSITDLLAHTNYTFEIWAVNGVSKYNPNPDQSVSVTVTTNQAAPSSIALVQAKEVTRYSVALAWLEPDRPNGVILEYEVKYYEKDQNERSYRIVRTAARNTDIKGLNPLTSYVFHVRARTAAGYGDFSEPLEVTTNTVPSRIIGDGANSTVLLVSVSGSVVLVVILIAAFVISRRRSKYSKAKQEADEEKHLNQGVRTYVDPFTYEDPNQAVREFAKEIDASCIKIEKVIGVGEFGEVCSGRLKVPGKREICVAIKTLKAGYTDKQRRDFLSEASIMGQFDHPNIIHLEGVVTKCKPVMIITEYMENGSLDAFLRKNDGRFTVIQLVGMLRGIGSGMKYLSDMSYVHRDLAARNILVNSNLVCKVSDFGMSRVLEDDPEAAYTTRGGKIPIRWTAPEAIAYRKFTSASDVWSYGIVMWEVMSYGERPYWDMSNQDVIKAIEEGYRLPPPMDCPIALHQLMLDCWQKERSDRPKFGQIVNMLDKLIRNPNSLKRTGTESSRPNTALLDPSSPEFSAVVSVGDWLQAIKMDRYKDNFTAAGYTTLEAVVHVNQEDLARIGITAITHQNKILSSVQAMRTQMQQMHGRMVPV
PAK4, sequence (O96013 whole entry): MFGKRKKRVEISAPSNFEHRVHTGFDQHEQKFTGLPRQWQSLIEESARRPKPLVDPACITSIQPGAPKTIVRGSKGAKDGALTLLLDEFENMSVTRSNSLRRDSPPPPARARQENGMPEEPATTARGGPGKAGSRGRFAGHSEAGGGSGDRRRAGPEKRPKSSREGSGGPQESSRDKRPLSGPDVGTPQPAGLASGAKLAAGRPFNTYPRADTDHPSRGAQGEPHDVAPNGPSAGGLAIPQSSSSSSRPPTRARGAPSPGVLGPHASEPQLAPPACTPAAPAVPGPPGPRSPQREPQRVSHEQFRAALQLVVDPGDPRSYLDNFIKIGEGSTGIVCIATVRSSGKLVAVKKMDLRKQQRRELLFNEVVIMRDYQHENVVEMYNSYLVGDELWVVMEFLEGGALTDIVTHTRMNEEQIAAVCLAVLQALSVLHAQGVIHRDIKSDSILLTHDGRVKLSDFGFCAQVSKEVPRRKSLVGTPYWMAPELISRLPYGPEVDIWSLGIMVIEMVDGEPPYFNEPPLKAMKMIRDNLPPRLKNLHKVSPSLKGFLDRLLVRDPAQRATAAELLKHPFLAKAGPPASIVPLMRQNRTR
CDKL1, sequence (Q00532 whole entry): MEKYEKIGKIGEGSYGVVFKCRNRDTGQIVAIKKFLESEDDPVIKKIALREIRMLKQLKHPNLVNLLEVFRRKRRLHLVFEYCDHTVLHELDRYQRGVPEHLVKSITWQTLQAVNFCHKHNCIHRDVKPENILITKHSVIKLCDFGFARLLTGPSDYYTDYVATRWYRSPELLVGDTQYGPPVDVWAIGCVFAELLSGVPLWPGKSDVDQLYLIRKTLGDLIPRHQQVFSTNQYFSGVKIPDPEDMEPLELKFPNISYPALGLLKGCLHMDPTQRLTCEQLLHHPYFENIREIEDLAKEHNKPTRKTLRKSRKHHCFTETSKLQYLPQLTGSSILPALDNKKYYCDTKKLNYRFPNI

Turning to `CNc1ncc2cc(-c3ccc(-c4cccc(C)n4)cc3Cl)c(=O)n(CC3OCC(N)CO3)c2n1` (centres unmarked) [compound 2, G-5555], the “dTm G-5555 (2)” value is 5.1 °C at ABL1 (10 µM, binder); -0.1 °C at DYRK2 (10 µM, binder); -0.6 °C on CK2a2 (10 µM, binder); 3.5 °C on PAK4 (10 µM, binder); 0.8 °C on BRPF1 (10 µM, binder); -0.1 °C at VRK1 (10 µM, binder). In addition, the “dTm G-5555 (2)” value on CDKL1 (10 µM, binder) was -0.1 °C.

On to `CNc1ncc2cc(-c3ccccc3Cl)c(=O)n(CCCCN)c2n1` [compound 4, 8-(4-Aminobutyl)-6-(2-chlorophenyl)-2-(methylamino)pyrido[2,3-d]pyrimidin-7(8H)-one], for which the ΔTm at 10 µM is 9.2 °C on ABL1 (read-out: dTm MR21 (4)); 0 °C on DYRK2 (read-out: dTm MR21 (4)); -0.3 °C at CK2a2 (read-out: dTm MR21 (4)); 2.8 °C at PAK4 (read-out: dTm MR21 (4)); 0.7 °C at BRPF1 (read-out: dTm MR21 (4)); -0.4 °C at VRK1 (read-out: dTm MR21 (4)). Moreover, the ΔTm at 10 µM at EpHA4 (read-out: dTm MR21 (4)) stood at 4.9 °C; on CDKL1 (read-out: dTm MR21 (4)), 0.5 °C.

For the molecule `CNc1ncc2cc(-c3cc(Br)ccc3Cl)c(=O)n(C[C@H]3OC[C@H](N)CO3)c2n1` [compound 7, 8-(((2r,5r)-5-Amino-1,3-dioxan-2-yl)methyl)-6-(5-bromo-2-chlorophenyl)-2-(methylamino)pyrido[2,3-d]pyrimidin-7(8H)-one], the ΔTm at 10 µM on ABL1 (read-out: dTm 7) is 4.1 °C; on DYRK2 (read-out: dTm 7) it was 0 °C; at CK2a2 (read-out: dTm 7) it was 0.1 °C; on PAK4 (read-out: dTm 7), 0.5 °C; on BRPF1 (read-out: dTm 7), -0.7 °C; on VRK1 (read-out: dTm 7) it was 0.5 °C. For the same molecule, the ΔTm at 10 µM is 3.6 °C at EpHA4 (read-out: dTm 7) and -0.1 °C at CDKL1 (read-out: dTm 7).

Regarding `CNc1ncc2cc(-c3cc(Br)ccc3Cl)c(=O)n(CCCCN)c2n1` [compound 6, 8-(4-Aminobutyl)-6-(5-bromo-2-chlorophenyl)-2-(methylamino)pyrido[2,3-d]pyrimidin-7(8H)-one], the ΔTm at 10 µM on ABL1 (read-out: dTm 6) was 4.5 °C; at DYRK2 (read-out: dTm 6) it was -0.1 °C; on CK2a2 (read-out: dTm 6), -0.1 °C; at PAK4 (read-out: dTm 6), 1.1 °C; on BRPF1 (read-out: dTm 6) it was 0.3 °C; on VRK1 (read-out: dTm 6), 0.3 °C. The ΔTm at 10 µM at CDKL1 (read-out: dTm 6) was determined as 0 °C.

With `CNc1ncc2cc(-c3cc(F)ccc3F)c(=O)n(CCCCN)c2n1` [compound 5, 8-(4-Aminobutyl)-6-(2,5-difluorophenyl)-2-(methylamino)pyrido[2,3-d]pyrimidin-7(8H)-one], the ΔTm at 10 µM was 6.9 °C at ABL1 (read-out: dTm MR22 (5)); 0.2 °C on DYRK2 (read-out: dTm MR22 (5)); -1 °C at CK2a2 (read-out: dTm MR22 (5)); 0.2 °C on PAK4 (read-out: dTm MR22 (5)); -1 °C at BRPF1 (read-out: dTm MR22 (5)); 0.4 °C on VRK1 (read-out: dTm MR22 (5)). Further, the ΔTm at 10 µM at EpHA4 (read-out: dTm MR22 (5)) came out at 3 °C; at CDKL1 (read-out: dTm MR22 (5)), 0.5 °C.
